Series [1] deals with B16F10 globin-SL8-intron (B16F10 GI) tumor. In words: Tumor challenge, B16F10 globin-SL8-intron in immunocompetent C57BL/6 mice. In kind it is in vivo, mouse. The settings on record: 18 mg/kg intraperitoneally, days 5, 10 and 15. Here is the method: (§1) (A) Experimental settings. Growth of (B) sarcoma MCA205 or (C) melanoma B16F10 cells that both stably express the globin-SL8-intron construct or (D) MCA205 Wild Type (WT) or (E) B16F10 WT cells that were subcutaneously inoculated on the flank of immunocompetent C57BL/6 mice injected intraperitoneally with 12 mg/kg or 18 mg/kg of isoginkgetin at days 5, 10 and 15 after inoculation. Tumor size was assessed every 3 to 4 days until reaching the established ethical endpoints. Each line represents the tumor size in area (mm^2) of 6 mice in each group. Size in area (mm^2) of (F) MCA205 globin-SL8-intron, (G) B16F10 globin-SL8-intron, (H) MCA205 WT or (I) B16F10 WT tumors subcutaneously inoculated on the flank of immunodeficient Nu/Nu Nude mice injected intraperitoneally with 18 mg/kg of isoginkgetin at days 5, 10 and 15 after inoculation. Data are presented at the day before the endpoints are reached.
Data are given as mean ±SEM. *P<0.05, **P<0.01, ***P<0.001 (unpaired student t test). […] Tumor size was assessed every 3 to 4 days until reaching the established ethical endpoints. […]
C57B1/6J female mice are obtained from Harlan. […] Area of the tumor is recorded every 3 to 4 days until day 27. […] Results are expressed as mean ±SEM. *p<0.05, **P<0.01, ***P<0.001 (ANOVA with Tukey's multiple comparison test comparing all groups).

In series [2] the test system is B16F10 mouse melanoma cell line. Briefly: MTT assay on B16F10 cell line. Type of series: cell-based. The settings on record: B16F10 WT cells, 15 μM or 35 μM. On the procedure:
(§2) RNA was extracted and qRT-PCR was performed with primers amplifying the unspliced (intron) and the spliced (exon) globin-SL8-intron RNA. Data are given as mean ±SEM of the ratio of 2^−ΔΔCt intron and 2^−ΔΔCt exon of at least three independent experiments. […] Data are express as mean ±SEM of the percentage of viable cells compared to the control condition of at least three independent experiments. *P<0.05, **P<0.01, ***P<0.001 (unpaired student t test).
(§3) MCA205 mouse sarcoma cell line is cultured at 37° C. under 5% CO2 in RPMI 1640 medium (Life Technologies) in the presence of 1% glutamine, 1% sodium pyruvate, 1% non-essential amino-acids, 1% penicillin/streptomycin and 10% FBS (Life Technologies) under standard conditions. B16F10 mouse melanoma cell line, MRC5 human fibroblast cell line and A375 human melanoma cell line are cultured at 37° C. under 5% CO2 in DMEM medium (Life Technologies) containing 1% glutamine, 1% penicillin/streptomycin and 10% FCS under standard conditions. A549 human lung carcinoma cell line is cultured at 37° C. under 5% CO2 in DMEM/F12+Glutamax I in the presence of 1% Hepes, 1% sodium pyruvate and 10% FBS under standard conditions. Stable MCA205-Globin-SL8-intron cell line are cultured under the same condition as MCA205 cell line with additional 2 mg/ml G418 (geneticin from Life Technologies) for selection. Stable B16F10-Globin-SL8-intron cell line are cultured under the same condition as B16F10 cell line with additional 2 mg/ml G418 (geneticin from Life Technologies) for selection. The SL8/Kb-specific (B3Z) T-cell reporter hybridoma are cultured at 37° C. under 5% CO2 in RPMI 1640 medium (Life Technologies) in the presence of 1% glutamine, 0.1% β-galactosidase, 1% penicillin/streptomycin and 10% FCS under standard conditions.
(§4) MTT assay on MCA205 and B16F10 cell lines treated with 6.25 μM, 15 μM or 25 μM of isoginkgetin. Dare are given as the mean of the percentage of cell viability ±SEM from at least three independent experiments.
On the technique in general: Tetrazolium assays rely on reduction of a dye to a coloured formazan, in cell work by metabolically active cells.

The test system of a further series is MCA205 WT tumors. In words: Tumor challenge, MCA205 WT in immunodeficient Nu/Nu nude mice. In kind it is in vivo, mouse. Particulars: 18 mg/kg intraperitoneally, days 5, 10 and 15. On the procedure:
as §1
Each line represents the tumor size in area (mm^2) of at least 6 mice in each group. The C right panel represents the tumor size at day 27. […]
Inventors then assessed the requirement of the immune response for isoginkgetin to reduce tumor growth Immunodeficient Nu/Nu nude mice were inoculated subcutaneously with either MCA205 or B16F10 cells that stably express the Globin-intron-SL8 or WT, and were treated with the same settings as previously described (FIG. 9A). […]

Series [3] in a line: MTT assay on B16F10 cell line. Type of series: cell-based, mouse. Particulars: mouse, B16F10 melanoma cells, MTT, read-out: % cell viability (±SEM). On the procedure: as §2, §3, §4
The nature of series [4]: MTT assay on A375 cell line. Particulars: human, A375 melanoma cells, read-out: % cell viability (±SEM). Type of series: cell-based. On the procedure:
MCA205 mouse sarcoma cell line is cultured at 37° C. under 5% CO2 in RPMI 1640 medium (Life Technologies) in the presence of 1% glutamine, 1% sodium pyruvate, 1% non-essential amino-acids, 1% penicillin/streptomycin and 10% FBS (Life Technologies) under standard conditions. B16F10 mouse melanoma cell line, MRC5 human fibroblast cell line and A375 human melanoma cell line are cultured at 37° C. under 5% CO2 in DMEM medium (Life Technologies) containing 1% glutamine, 1% penicillin/streptomycin and 10% FCS under standard conditions. A549 human lung carcinoma cell line is cultured at 37° C. under 5% CO2 in DMEM/F12+Glutamax I in the presence of 1% Hepes, 1% sodium pyruvate and 10% FBS under standard conditions. Stable MCA205-Globin-SL8-intron cell line are cultured under the same condition as MCA205 cell line with additional 2 mg/ml G418 (geneticin from Life Technologies) for selection. Stable B16F10-Globin-SL8-intron cell line are cultured under the same condition as B16F10 cell line with additional 2 mg/ml G418 (geneticin from Life Technologies) for selection. The SL8/Kb-specific (B3Z) T-cell reporter hybridoma are cultured at 37° C. under 5% CO2 in RPMI 1640 medium (Life Technologies) in the presence of 1% glutamine, 0.1% β-galactosidase, 1% penicillin/streptomycin and 10% FCS under standard conditions. […]

Consider `COc1ccc(-c2cc(=O)c3c(OC)cc(OP(=O)([O-])[O-])c(-c4cc(-c5cc(=O)c6c(OC)cc(OP(=O)([O-])[O-])cc6o5)ccc4OC)c3o2)cc1.[Na+].[Na+].[Na+].[Na+]` [IM2P2], for which the tumor growth result in series [1] is “had no effect on growth”. Besides, the “toxicity (MTT, percentage of viable cells compared to control)” value in series [2] is on record as “no toxicity”.
One may read the viability as the share of living cells, or the viability signal relative to a control. `COc1ccc(-c2cc(=O)c3c(O)cc(O)c(-c4cc(-c5cc(=O)c6c(O)cc(O)cc6o5)ccc4OC)c3o2)cc1` [Isoginkgetin, isoginkgetin]: in the series on MCA205 WT tumors, the tumor growth result is on record as “No effect”. In addition, the viability at 6.25 µM in series [3] (B16F10, 6.25 μM) was found to be 86.5%; in series [4] (A375, 6.25 μM), 100%. Also, in series [3] (B16F10, 15 μM), the viability at 15 µM stood at 58.6%. In addition, in series [3] (B16F10, 25 μM), the viability at 25 µM came out at 51.2%. In addition, in series [4] (A375, 2.5 μM), the viability at 2.5 µM worked out at 100%.

Source of the values: US11110105B2, “Compounds, composition and uses thereof for treating cancer” (INSTITUT GUSTAVE ROUSSY, priority 2017, dated 2021).
